For data set [1] the following is noted: cited from earlier work.
The subject of data set [2] is ARPE-19 human retinal cells. Put plainly: MTS cell growth assay. As to conditions: read-out: IC50 (cell growth). The format is cell-based. Background: Tetrazolium assays rely on reduction of a dye to a coloured formazan, in cell work by metabolically active cells.
Data set [3] concerns Human Induced Pluripotent Stem Cell (hiPSC)-Derived Cardiomyocytes.
A further data set relates to hiPSC-CMs. As to the kind of experiment: Extracellular lactate dehydrogenase. It is filed as cell-based, human. As to conditions: 48-hour treatment.
Another data set deals with hiPSC-CM cell monolayer. Put plainly: Cell health index: cardiomyocyte cell monolayer assessment. It is filed as cell-based, human.

The structures appear in SMILES notation. Read-outs that look alike come from different tables or passages of the source.

In general, IC50 refers to the concentration needed to halve the response being measured.

On to `CCc1cc(C(N)=O)ccc1-n1nc(C(C)C)c2c(-n3cnc(-c4cnn(C)c4)c3)ccnc21` [TAS-116], for which the “ocular toxicities in vivo” value in data set [1] was “avoid any ocular toxicities in vivo”. Besides, the IC50 in data set [2] (Homo sapiens, ARPE-19, 48 h) was found to be 444 nM.
Regarding `CCNC(=O)c1noc(-c2cc(C(C)C)c(O)cc2O)c1-c1ccc(CN2CCOCC2)cc1` [NVP AUY922], the IC50 in data set [2] (Homo sapiens, ARPE-19, 48 h) is less than 10 nM.
Regarding `C=CCNC1=C2C[C@@H](C)C[C@H](OC)[C@H](O)[C@@H](C)/C=C(\C)[C@H](OC(N)=O)[C@@H](OC)/C=C\C=C(/C)C(=O)NC(=CC1=O)C2=O` [17-AAG], the quiescence is 1/8 in data set [3] (0.25 µM, 48 h); 1/8 in data set [3] (2.5 µM, 24 h); 6/8 in data set [3] (2.5 µM, 48 h); 8/8 in data set [3] (10 µM, 24 h); 8/8 in data set [3] (10 µM, 48 h); 8/8 in data set [3] (50 µM, 24 h). For the same molecule, in data set [3] (50 µM, 48 h), the quiescence is 8/8. The “cardiomyocyte function / cardio-toxicity (in words)” value in data set [3] (24 h) is recorded as “severe dysregulation of cardiomyocyte function”. The “extracellular LDH (in words)” value in the data set with hiPSC-CMs is “highly dose-dependently toxic”. Moreover, the 50% inhibitory concentration (IC50) in data set [2] (ARPE-19, 48 hr, MTS, Avg ± SD, N = 3 biological replicates) was 20 nM.
As for `COc1cccc2c1C(=O)c1c(O)c3c(c(O)c1C2=O)C[C@@](O)(C(=O)CO)C[C@@H]3O[C@H]1C[C@H](N)[C@H](O)[C@H](C)O1` [Doxorubicin], the “effect on the cell monolayer (in words)” value in the data set with hiPSC-CM cell monolayer was “greater monolayer damage at both 24 and 48 h”. The electrical quiescence in data set [3] (0.3 µM, 30 min) is 1/8. Moreover, in data set [3] (24 h), the “cardiomyocyte function / cardio-toxicity (in words)” value is listed as “largely had no effect on electrophysiology”.

The record behind these values is paper PMC11779861 (Scientific Reports, 2025).
